pEC50: −log10 of the molar value.
system: HIV-1 (H9IIIB strain); test: Cell-Based HIV Infection Assay Using a Reporter (MT4-GFP cells); settings: Human immunodeficiency virus 1, inflection point (IP) of viral growth inhibition; MT4-GFP cells infected with HIV-1 H9IIIB; 50% normal human serum; mean of at least two independent experiments; read-out: Cell Based IP (50% NHS)
In short: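 MT4-GFP cells (HIV LTR-driven GFP) bulk-infected with HIV-1 H9IIIB at low MOI for 24 h, washed, then exposed to compounds in RPMI plus 50% normal human serum, 0.4% DMSO. Infected cells counted at 24 and 48 h; R0 = 48 h/24 h ratio, inhibition normalised to DMSO and triple-drug control; IP from 4-parameter fit.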

Row | SMILES | pEC50
1 | CC1(C)C[C@@H]([C@H](c2ccc(Cl)cc2)[C@H](N)C(=O)Nc2c(F)ccc(F)c2CC[C@H]2CN[C@@H]3CCCS(=O)(=O)N2C3)CCO1 [Example 194, (βR)-4-chloro-β-[(4S)-2,2-dimethyltetrahydro-2H-pyran-4-yl]-N-(2-{2-[(6R,9S)-2,2-dioxido-2-thia-1,7-diazabicyclo[4.3.1]dec-9-yl]ethyl}-3,6-difluorophenyl)-L-phenylalaninamide] | 7.72
2 | CS(=O)(=O)N1CCC(c2ccc(Cl)cc2)([C@H](N)C(=O)Nc2cccc(F)c2CC[C@H]2CN[C@@H]3CCCS(=O)(=O)N2C3)CC1 [Example 176, (2S)-2-amino-2-[4-(4-chlorophenyl)-1-(methylsulfonyl)piperidin-4-yl]-N-(2-{2-[(6R,9S)-2,2-dioxido-2-thia-1,7-diazabicyclo[4.3.1]dec-9-yl]ethyl}-3-fluorophenyl)ethanamide] | 6.82
3 | N[C@H](C(=O)Nc1cccc(F)c1CCC1CNC2CCCS(=O)(=O)N1C2)[C@@H](c1ccc(Cl)cc1)C1CCC(F)(F)CC1 (stereo partly drawn) [Example 53, (βR)-4-chloro-β-(4,4-difluorocyclohexyl)-N-{2-[2-(2,2-dioxido-2-thia-1,7-diazabicyclo[4.3.1]dec-9-yl)ethyl]-3-fluorophenyl}-L-phenylalaninamide] | 7.62
4 | CC1(C)CC([C@H](c2ccc(Cl)cc2)[C@H](N)C(=O)N[C@H]2CCC[C@@H]2CC[C@H]2CN[C@@H]3CCCS(=O)(=O)N2C3)CCO1 (stereo partly drawn) [Example 55, (βR)-4-chloro-β-(2,2-dimethyltetrahydro-2H-pyran-4-yl)-N-[(1S,2R)-2-{2-[(6R,9S)-2,2-dioxido-2-thia-1,7-diazabicyclo[4.3.1]dec-9-yl]ethyl}cyclopentyl]-L-phenylalaninamide] | 7.10
5 | C[C@@H]1C[C@H](C(c2ccc(F)cc2)[C@H](N)C(=O)Nc2cccc(F)c2CC[C@H]2CN[C@@H]3CCCS(=O)(=O)N2C3)C[C@H](C)O1 (stereo partly drawn) [Example 15, β-[(2R,4r,6S)-2,6-Dimethyltetrahydro-2H-pyran-4-yl]-N-(2-{2-[(6R,9S)-2,2-dioxido-2-thia-1,7-diazabicyclo[4.3.1]dec-9-yl]ethyl}-3-fluorophenyl)-4-fluoro-L-phenylalaninamide] | 8.06
6 | COC(=O)N[C@H](C(=O)Nc1cccc(F)c1CC[C@H]1CN[C@@H]2CCCS(=O)(=O)N1C2)[C@@H](c1ccc(Cl)cc1)C1CCC(C)(C)OC1 (stereo partly drawn) [Example 271, methyl {(1S,2R)-2-(4-chlorophenyl)-2-(6,6-dimethyltetrahydro-2H-pyran-3-yl)-1-[(2-{2-[(6R,9S)-2,2-dioxido-2-thia-1,7-diazabicyclo[4.3.1]dec-9-yl]ethyl}-3-fluorophenyl)carbamoyl]ethyl}carbamate] | 8.15
7 | Cn1nc(C(F)(F)F)cc1[C@H](c1ccc(Cl)c(F)c1)[C@H](N)C(=O)Nc1cncc(F)c1CC[C@H]1CN[C@@H]2CCCS(=O)(=O)N1C2 [Example 268, (βR)-4-chloro-N-(4-{2-[(6R,9S)-2,2-dioxido-2-thia-1,7-diazabicyclo[4.3.1]dec-9-yl]ethyl}-5-fluoropyridin-3-yl)-3-fluoro-β-[1-methyl-3-(trifluoromethyl)-1H-pyrazol-5-yl]-L-phenylalaninamide] | 7.74
8 | N[C@H](C(=O)Nc1cccc(F)c1CCC1CNC2CCCS(=O)(=O)N1C2)[C@@H](c1ccc(Cl)cc1)C1CCOC(CC(F)(F)F)C1 (stereo partly drawn) [Example 163, (βR)-4-chloro-N-{2-[2-(2,2-dioxido-2-thia-1,7-diazabicyclo[4.3.1]dec-9-yl)ethyl]-3-fluorophenyl}-β-[2-(2,2,2-trifluoroethyl)telrahydro-2H-pyran-4-yl]-L-phenylalaninamide] | 7.72
9 | N[C@H](C(=O)Nc1cncc(F)c1CC[C@H]1CN[C@@H]2CCCS(=O)(=O)N1C2)[C@@H](c1ccc(Cl)cc1)c1csc(C(F)(F)F)n1 [Example 269, (βR)-4-chloro-N-(4-{2-[(6R,9S)-2,2-dioxido-2-thia-1,7-diazabicyclo[4.3.1]dec-9-yl]ethyl}-5-fluoropyridin-3-yl)-β-[2-(trifluoromethyl)-1,3-thiazol-4-yl]-L-phenylalaninamide] | 8.30
10 | CO[C@H]1CC[C@H]([C@H](c2ccc(F)cc2)[C@H](N)C(=O)Nc2cncc(F)c2CC[C@H]2CN[C@@H]3CCCS(=O)(=O)N2C3)CC1 [Example 27, (2S,3R)-2-Amino-N-(4-(2-((6R,9S)-2,2-dioxido-2-thia-1,7-diazabicyclo[4.3.1]decan-9-yl)ethyl)-5-fluoropyridin-3-yl)-3-(4-fluorophenyl)-3-((1r,4R)-4-methoxycyclohexyl)propanamide] | 8.12
11 | COc1cc([C@H](c2ccc(Cl)c(F)c2)[C@H](N)C(=O)Nc2cccc(F)c2CCC2CNC3CCCS(=O)(=O)N2C3)ccn1 (stereo partly drawn) [Example 67, (βR)-4-chloro-N-{2-[2-(2,2-dioxido-2-thia-1,7-diazabicyclo[4.3.1]dec-9-yl)ethyl]-3-fluorophenyl}-3-fluoro-β-(2-methoxypyridin-4-yl)-L-phenylalaninamide] | 8.35
12 | CC1(C)C[C@@H]([C@H](c2ccc(Cl)cc2)[C@H](N)C(=O)Nc2cccc(F)c2CC[C@H]2CN[C@@H]3CCCS(=O)(=O)N2C3)CCO1 [Example 10, (2S,3R)-2-amino-3-(4-chlorophenyl)-3-((S)-2,2-dimethyltetrahydro-2H-pyran-4-yl)-N-(2-(2-((6R,9S)-2,2-dioxido-2-thia-1,7-diazabicyclo[4.3.1]decan-9-yl)ethyl)-3-fluorophenyl)propanamide] | 8.17
13 | N[C@H](C(=O)Nc1cccc(F)c1CCC1CNC2CCCS(=O)(=O)N1C2)[C@H](CCC1CCCCO1)c1ccc(Cl)cc1 (stereo partly drawn) [Example 151, (βR)-4-chloro-N-{2-[2-(2,2-dioxido-2-thia-1,7-diazabicyclo[4.3.1]dec-9-yl)ethyl]-3-fluorophenyl}-β-[2-(tetrahydro-2H-pyran-2-yl)ethyl]-L-phenylalaninamide] | 7.64
14 | N[C@H](C(=O)N[C@H]1CCCC[C@@H]1CC[C@H]1CN[C@@H]2CCCS(=O)(=O)N1C2)[C@H](c1cncc(C(F)(F)F)c1)c1ccc(Cl)c(F)c1 [Example 150] | 7.66
15 | CO[C@H]1CC[C@](c2ccc(Cl)cc2)([C@H](N)C(=O)Nc2cccc(F)c2CC[C@H]2CN[C@@H]3CCCS(=O)(=O)N2C3)CC1 [Example 171, (2S)-2-amino-2-[trans-1-(4-chlorophenyl)-4-methoxycyclohexyl]-N-(2-{2-[(6R,9S)-2,2-dioxido-2-thia-1,7-diazabicyclo[4.3.1]dec-9-yl]ethyl}-3-fluorophenyl)ethanamide] | 7.47
16 | N[C@H](C(=O)Nc1cncc(F)c1CC[C@H]1CN[C@@H]2CCCS(=O)(=O)N1C2)C1(c2ccc(Cl)cc2)CCOCC1 [Example 233, (2S)-2-amino-2-[4-(4-chlorophenyl)tetrahydro-2H-pyran-4-yl]-N-(4-{2-[(6R,9S)-2,2-dioxido-2-thia-1,7-diazabicyclo[4.3.1]dec-9-yl]ethyl}-5-fluoropyridin-3-yl)ethanamide] | 7.17
17 | N[C@H](C(=O)Nc1c(F)ccc(F)c1CC[C@H]1CN[C@@H]2CCCS(=O)(=O)N1C2)[C@@H](c1ccc(Cl)cc1)C1CCOCC1 [Example 91, (βR)-4-chloro-N-(2-{2-[(6R,9S)-2,2-dioxido-2-thia-1,7-diazabicyclo[4.3.1]dec-9-yl]ethyl}-3,6-difluorophenyl)-β-(tetrahydro-2H-pyran-4-yl)-L-phenylalaninamide] | 7.66
18 | N[C@H](C(=O)N[C@H]1CCC[C@@H]1CC[C@H]1CN[C@@H]2CCCS(=O)(=O)N1C2)[C@@H](c1ccc(F)cc1)c1cc(F)cc(F)c1 [Example 57, (βS)-β-(3,5-difluorophenyl)-N-[(1S,2R)-2-{2-[(6R,9S)-2,2-dioxido-2-thia-1,7-diazabicyclo[4.3.1]dec-9-yl]ethyl}cyclopentyl]-4-fluoro-L-phenylalaninamide] | 7.57
19 | N[C@H](C(=O)Nc1cccc(F)c1CC[C@H]1CNC2CCCS(=O)(=O)N1C2)C1(c2ccc(Cl)cc2)CCOCC1 (stereo partly drawn) [Example 40, (2S)-2-amino-2-[4-(4-chlorophenyl)tetrahydro-2H-pyran-4-yl]-N-(2-{2-[(9S)-2,2-dioxido-2-thia-1,7-diazabicyclo[4.3.1]dec-9-yl]ethyl}-3-fluorophenyl)ethanamide] | 7.00
20 | N[C@H](C(=O)Nc1cccc(F)c1CCC1CNC2CCCS(=O)(=O)N1C2)[C@@H](c1ccc(Cl)cc1)c1ccc(C(F)(F)F)nc1 (stereo partly drawn) [Example 89, (βS)-4-chloro-N-{2-[2-(2,2-dioxido-2-thia-1,7-diazabicyclo[4.3.1]dec-9-yl)ethyl]-3-fluorophenyl}-β-[6-(trifluoromethyl)pyridin-3-yl]-L-phenylalaninamide] | 8.29
21 | COC(=O)N[C@H](C(=O)Nc1cccc(F)c1CCC1CNC2CCCS(=O)(=O)N1C2)[C@@H](c1ccc(F)cc1)c1cc(F)cc(F)c1 (stereo partly drawn) [Example 35, methyl [(1S,2S)-2-(3,5-difluorophenyl)-1-({2-[2-(2,2-dioxido-2-thia-1,7-diazabicyclo[4.3.1]dec-9-yl)ethyl]-3-fluorophenyl}carbamoyl)-2-(4-fluorophenyl)ethyl]carbamate] | 8.42
22 | COC(=O)N[C@H](C(=O)Nc1cccc(F)c1CCC1CNC2CCCS(=O)(=O)N1C2)C(c1ccc(OC)nc1)c1ccc(F)c(F)c1 (stereo in doubt) [Example 68, methyl [(1S,2R)-2-(3,4-difluorophenyl)-1-({2-[2-(2,2-dioxido-2-thia-1,7-diazabicyclo[4.3.1]dec-9-yl)ethyl]-3-fluorophenyl}carbamoyl)-2-(6-methoxypyridin-3-yl)ethyl]carbamate] | 7.92
23 | C[C@@H]1C[C@](c2ccc(Cl)cc2)([C@H](N)C(=O)Nc2cccc(F)c2CC[C@H]2CN[C@@H]3CCCS(=O)(=O)N2C3)C[C@H](C)O1 [Example 168, (2S)-2-amino-2-[(2R,4r,6S)-4-(4-chlorophenyl)-2,6-dimethyltetrahydro-2H-pyran-4-yl]-N-(2-{2-[(6R,9S)-2,2-dioxido-2-thia-1,7-diazabicyclo[4.3.1]dec-9-yl]ethyl}-3-fluorophenyl)ethanamide] | 6.77
